In test [1] the target is T1, VEGF binding to heparin (HS-GAG) (Homo sapiens, UniProt P15692).
T1 construct: purchased Research and Development Systems
T1 sequence (P15692 27-191 isoform P15692-4): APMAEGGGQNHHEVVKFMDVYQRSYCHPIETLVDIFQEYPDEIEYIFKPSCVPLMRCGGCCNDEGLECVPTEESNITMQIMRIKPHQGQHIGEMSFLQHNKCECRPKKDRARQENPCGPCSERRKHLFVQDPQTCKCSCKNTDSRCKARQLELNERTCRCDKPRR
Briefly: In vitro VEGF to HS-GAG binding assay (ELISA, heparin-BSA coated plate). An excerpt: An in vitro assay was used to assess the ability of test compounds of general formulas I and II to inhibit the interaction of VEGF with HS-GAGs. The assay was designed to for determine the concentration required for 50% inhibition (IC-50) for each specific compound. The test compounds were purchased from Life Chemicals Ltd. (Kiev, Ukraine), and the GAG used was heparin (heparin grade I-A; Sigma) conjugated to bovine serum albumin (Sigma) and diluted 1:200 in phosphate-buffered saline (PBS; pH 7.3). The heparin was added to a 96-well polystyrene ELISA plate (NUNC; 0.1 ml per well) and incubated overnight at 4° C. Following the incubation, the plate was washed thoroughly, by immersion, with de-ionized water and then with PBS (pH 7.3) containing Tween 20 (Sigma, 0.05%). The ELISA plate was then blocked with BSA (ICN, 3%, 200 μl per well) for 1 hour at room temperature. Following blocking, the plate was washed with de-ionized water, and then twice with PBS (pH 7.3) containing Tween 20. Recombinant human VEGF (Research and Development Systems) dissolved in PBS supplemented with BSA (0.1%) was added to the ELISA plate. The test compounds were dissolved in DMSO (MERCK), diluted in PBS and added to the wells at concentrations ranging from 0.01 to 200 μM to obtain a final volume 100 μl per well, and incubated for 60 minutes at room temperature with shaking. Following incubation, the plate was washed with de-ionized water and PBS (pH 7.3) containing Tween 20. Anti-human VEGF (1:2000; Research and Development Systems) diluted in PBS supplemented with BSA (1%) was added to the ELISA plate (100 per well) and incubated for 60 minutes at room temperature with shaking. Following incubation, the plate was washed with de-ionized water and then with PBS (pH 7.3) containing Tween 20. Streptavidin-HRP (1:200; Research and Development Systems Cat. No. DY998) diluted in PBS supplemented with BSA (1%) was added to the ELISA plate (100 per well) and incubated for 20 minutes at room temperature with shaking. The plate was then washed with de-ionized water and twice with PBS (pH 7.3) containing Tween 20. The peroxidase substrate chromogen tetramethyl benzidine (TMB; Dako) was added (100 μl per well) to the ELISA plate and incubated at room temperature. After 15 minutes, ELISA Stop Solution (hydrochloric acid 1N, sulfuric acid 3N) was added (100 μl per well) to stop the peroxidase catalyzed colorimetric reaction. The Optical Density (OD) of the samples was measured at 450 nm using an ELISA plate reader (Dynatech MR5000). Data were analyzed with Graphpad Prism software and IC-50 values were determined.
Percent inhibition at 30 μM concentration is shown and for selected compounds IC-50 was established.
(In general: An ELISA detects its analyte on a solid surface through an enzyme-linked reagent.)

Test [2] concerns oxazolone-induced ear swelling in BALB/c mice. As to the kind of experiment: Delayed-type hypersensitivity (DTH), oxazolone mouse ear-swelling test. The test is classed as in vivo. The settings on record: per os 50 mg/kg, 1 hour prior to challenge; after 48 hours. The protocol:
FIG. 2 is a graph showing the anti-inflammatory activity of Compounds 1, 2, 4, 5, 6 administered to mice orally at 50 mg/kg in a model of delayed-type hypersensitivity (DTH) (11-13 mice per group). The results for dexamethasone (10 mg/kg i.p.), a steroid positive control, are also shown. The y-axis represents difference in ear thickness in mm compared to control. The results were statistically evaluated by Student's t-test and statistical significance is indicated by one, two or three stars ([…]).
BALB/c mice (Velaz, Prague, Czech Republic; 8 week-old; 10-15 animals per group) were sensitized by topical application of a 2% oxazolone (4-ethoxymethylene-2-phenyl-2-oxazolin-5-one; Sigma, St Louis, Mo.) solution in acetone/olive oil (4:1 vol/vol) to a shaved abdomen area (50 μl) and to each paw (5 μl)(Lange-Asschenfeldt et al., 2002). Topical oxazolone administration induces immunomodulatory activity. Five days after sensitization, right ears were challenged by topical application of 10 μl of a 1% oxazolone solution, whereas left ears were treated with vehicle alone. Test compounds were administered 1 hour prior to challenge. The extent of inflammation was measured 24 hours and 48 hours after challenge, using the mouse ear-swelling test. Animals were numbered (tail marking) and weighed and the thickness of both ears was recorded with a constant-loading dial micrometer (Mitutoyo, Tokyo). The unpaired Student t-test was used for statistical analyses. Test compounds were administered per os at 50 mg/kg as a suspension with 0.5% methylcellulose. The vehicle control group received the same volume of 0.5% methylcellulose.

Test [3] deals with carrageenan-induced paw edema in BALB/c mice. As to the kind of experiment: Carrageenan-induced paw edema. The test is classed as in vivo. The conditions noted are these: 50 mg/kg dose; separate experiment (data not shown). On the procedure:
FIG. 1 is a graph showing the anti-inflammatory activity of Compounds 1-6 administered to mice intraperitoneally (i.p.) at 20 mg/kg, 1 hour before induction of paw edema (10-12 mice per group). The swelling of paws was measured 4 hours after induction, compared to controls and expressed as difference in paw thickness in mm (y-axis). The results were statistically evaluated by Student's t-test and statistical significance is indicated by one, two or three stars ([…]).
Acute edema was induced in the […] of BALB/c mice (10-12 mice/group) by injecting 0.02 ml of freshly prepared solution of 2% carrageenan (Sigma) under the plantar region of right hind paw (Tones et al., 2000). Carrageenan was injected 60 min after administration of the test compounds. The right paw received 0.02 ml of saline, which served as a control. The paw thickness was measured at 2, 4 and 24 hours after carrageenan challenge using a Mitutoyo engineer's micrometer. The difference between right and left pad was expressed as mean±SEM. Test compounds were injected intraperitoneally (i.p.) (20 mg/kg) in 0.5% Tween 80 in saline and vehicle control group received 0.5% Tween 80 in saline.
Compound 1 reduced paw edema by 33% and the reduction was statistically significant as determined by Student's t-test with […].

SMILES strings stand for the structures. pIC50: −log10 of the molar value.

For orientation: pIC50 means the IC50 on a negative log10 scale, so that one unit is a factor of ten. By inhibition is commonly meant how much of the control response was suppressed. A lower inhibition goes with a response near the control. In the case of `CN1CCc2c(sc(NC(=O)c3cccs3)c2-c2nc3ccccc3s2)C1` [Compound 7, N-[3-(2-benzothiazolyl)-4,5,6,7-tetrahydro-6-methylthieno[2,3-c]pyridin-2-yl]-2-thiophenecarboxamide], the pIC50 in test [1] is 5.77. This compound also displayed an inhibition at 30 µM in test [1] (30 μM) of 70%. The “reduction of ear swelling” value in test [2] was 32.7%. Also, the “reduction of paw edema” value in test [3] was determined as 18.5%.

These data come from patent publication US20100298370A1, “BENZOTHIAZOLYL THIENOPYRIDINE DERIVATIVES AND USES THEREOF” (priority 2006, published 2010).
